Test results: patent publication US11793782B2, “Therapeutic agents for neurodegenerative diseases” (priority 2017, dated 2023)

What was measured:
[1] = test system: Mucolipidosis Type II (MLII) patient fibroblasts; experiment: Lysosomal volume via LysoTracker, MLII fibroblasts; assay type: cell-based, human; conditions: 1 mM, 6 days
[2] = test system: ataxia telangiectasia patients; experiment: Case studies, ataxia telangiectasia patients (SARA, SCAFI, video-oculography); assay type: in vivo, human; conditions: for 8MWT: baseline 8.95 sec; for PATA: baseline 14.5; for 9HPTND: baseline 71.2 sec; for 9HPTD: baseline 85.38 sec
Text: For example, to evaluate overall neurological status, mDRS, a four-domain scale (ambulation, manipulation, language and swallowing), may be applied. Cerebellar function may be evaluated using SARA, an eight-item clinical rating scale (gait, stance, sitting, speech, fine motor function and taxis; range 0-40, where 0 is the best neurological status and 40 the worst), and SCAFI, comprising the 8-m-Walking-Time (8 MW; performed by having patients walking twice as quickly as possible from one line to another excluding turning), 9-Hole-Peg-Test (9HPT) and the number of “PATA” repetitions over 10 s. Subjective impairment and quality of life may be evaluated using the EQ-5D-5L questionnaire and VAS. To assess ocular motor function, 3-dimensional videooculography (EyeSeeCam) may be used to measure the peak velocity of saccades, gain of smooth pursuit, peak slow phase velocity of gaze-evoked nystagmus (gaze-holding function), peak slow phase velocity of optokinetic nystagmus, and gain of horizontal vestibulo-ocular reflex. To evaluate the cognitive state, WAIS-R or WISC-IV, and MoCA, assessing different cognitive domains, including attention and concentration, executive functions, memory, language, visuoconstructional skills, conceptual thinking, calculations, and orientation with a maximum of 30 points and a cut-off score of 26, may be used. The skilled person will know how to perform these and other such tests.
After one month of treatment, the patient was re-evaluated. […] Examination indicated a Scale for Assessment and Rating of Ataxia (SARA) score of 15.5/40. Results from the patient's Spinocerebellar Ataxia Functional Index (SCAFI) analysis were: • Mean 8-meters Walking Test (8 MW): 18.5 s • MW 9-Hole Pegboard Test Dominant (9HPTD) (right): 77.9 s • MW 9-Hole Pegboard Test Non-Dominant (9HPTND): 101.3 s • MW PATA Word Test: 13 • Visual analog scale (as evaluated by the patient): 85
After one month of treatment, the patient was re-evaluated. […] Examination indicated a Scale for Assessment and Rating of Ataxia (SARA) score of 23.5/40.
After slightly over 7 months of treatment, the patient was re-evaluated. […] Examination indicated a Scale for Assessment and Rating of Ataxia (SARA) score of 21.5/40.
After slightly over 1 month of treatment, the patient was re-evaluated. […] The patient also reported that drinking was easier and no longer needed a straw. […] Examination indicated a Scale for Assessment and Rating of Ataxia (SARA) score of 18.5/40.
After about 1 month of treatment, the patient was re-evaluated. […] On medication, they were able to walk with only holding the caregiver's hand.
The patient was evaluated after one month and six months of treatment, respectively. […] The patient, however, was suffering from anxiety, which would be expected to negatively influence the response.

[3] = ataxia telangiectasia Patient 1, after one month
[4] = ataxia telangiectasia Patient 1, after one month, Center
[5] = ataxia telangiectasia Patient 1, after one month, Down
[6] = ataxia telangiectasia Patient 1, after one month, Left
[7] = ataxia telangiectasia Patient 1, after one month, Right
[8] = ataxia telangiectasia Patient 1, after one month, Up
[9] = ataxia telangiectasia Patient 2, after one month
[10] = ataxia telangiectasia Patient 2, after one month, Center
[11] = ataxia telangiectasia Patient 2, after one month, Down
[12] = ataxia telangiectasia Patient 2, after one month, Left
[13] = ataxia telangiectasia Patient 2, after one month, Right
[14] = ataxia telangiectasia Patient 2, after one month, Up
[15] = ataxia telangiectasia Patient 3, after slightly over 7 months
[16] = ataxia telangiectasia Patient 3, after slightly over 7 months, Center
[17] = ataxia telangiectasia Patient 3, after slightly over 7 months, Down
[18] = ataxia telangiectasia Patient 3, after slightly over 7 months, Left
[19] = ataxia telangiectasia Patient 3, after slightly over 7 months, Right
[20] = ataxia telangiectasia Patient 4, after slightly over 1 month
[21] = ataxia telangiectasia Patient 4, after slightly over 1 month, Center
[22] = ataxia telangiectasia Patient 4, after slightly over 1 month, Down
[23] = ataxia telangiectasia Patient 4, after slightly over 1 month, Left
[24] = ataxia telangiectasia Patient 4, after slightly over 1 month, Right
[25] = ataxia telangiectasia Patient 5, after about 1 month
[26] = ataxia telangiectasia Patient 5, after about 1 month, Center
[27] = ataxia telangiectasia Patient 5, after about 1 month, Down
[28] = ataxia telangiectasia Patient 5, after about 1 month, Left
[29] = ataxia telangiectasia Patient 5, after about 1 month, Right
[30] = ataxia telangiectasia Patient 5, after about 1 month, Up
[31] = ataxia telangiectasia Patient 5, after almost 7 months
[32] = ataxia telangiectasia Patient 5, after slightly over a year
[33] = ataxia telangiectasia Patient 6, after one month
[34] = ataxia telangiectasia Patient 6, after six months

## CC(=O)NC(CC(C)C)C(=O)O (racemic) [acetyl-DL-leucine]
[1]
  LysoTracker fluorescence relative to untreated disease fibroblasts: statistically significant reduction in LysoTracker fluorescence
[2]; [3]
  Caregivers' report: improvement of speech and gait
  Video-oculography (summary): significant improvement of fixation stability and decrease of intensity of downbeat-nystagmus
[2]; [4]
  Slow phase velocity of the gaze-holding nystagmus, Horizontal: 0.4
  Slow phase velocity of the gaze-holding nystagmus, Vertical: 4.77
[2]; [5]
  Slow phase velocity of the gaze-holding nystagmus, Horizontal: −0.44
  Slow phase velocity of the gaze-holding nystagmus, Vertical: 5.29
[2]; [6]
  Slow phase velocity of the gaze-holding nystagmus, Horizontal: 8.2
  Slow phase velocity of the gaze-holding nystagmus, Vertical: 8.85
[2]; [7]
  Slow phase velocity of the gaze-holding nystagmus, Horizontal: −0.95
  Slow phase velocity of the gaze-holding nystagmus, Vertical: 4.83
[2]; [8]
  Slow phase velocity of the gaze-holding nystagmus, Horizontal: 0.72
  Slow phase velocity of the gaze-holding nystagmus, Vertical: 2.67
[2]; ataxia telangiectasia Patient 1, after one month, before 12.5
  PATA Word Test: 13
[2]; ataxia telangiectasia Patient 1, after one month, before 21.8 s
  Mean 8-meters Walking Test (8 MW): 18.5 s
[2]; ataxia telangiectasia Patient 1, after one month, before 90.2 s
  9-Hole Pegboard Test Dominant (9HPTD) (right): 77.9 s
[2]; ataxia telangiectasia Patient 1, after one month, before 99
  Visual analog scale (as evaluated by the patient): 85
[2]; ataxia telangiectasia Patient 1, after one month, before 125.8 s
  9-Hole Pegboard Test Non-Dominant (9HPTND): 101.3 s
[2]; [9]
  Caregivers' report: improvement of fine motor function, hand tremor, and speech
  Mean 8-meters Walking Test (8 MW): not able to perform without support
  Video-oculography (summary): improvement of fixation stability and significant improvement of downbeat-nystagmus intensity
[2]; [10]
  Slow phase velocity of the gaze-holding nystagmus, Horizontal: −1.45
  Slow phase velocity of the gaze-holding nystagmus, Vertical: 5.6
[2]; [11]
  Slow phase velocity of the gaze-holding nystagmus, Horizontal: −2.5
  Slow phase velocity of the gaze-holding nystagmus, Vertical: 4.69
[2]; [12]
  Slow phase velocity of the gaze-holding nystagmus, Horizontal: 3.58
  Slow phase velocity of the gaze-holding nystagmus, Vertical: 7
[2]; [13]
  Slow phase velocity of the gaze-holding nystagmus, Horizontal: −3.45
  Slow phase velocity of the gaze-holding nystagmus, Vertical: 6.56
[2]; [14]
  Slow phase velocity of the gaze-holding nystagmus, Horizontal: −0.51
  Slow phase velocity of the gaze-holding nystagmus, Vertical: 3.15
[2]; ataxia telangiectasia Patient 2, after one month, before 13.5
  PATA Word Test: 14
[2]; ataxia telangiectasia Patient 2, after one month, before 45
  Visual analog scale (as evaluated by the patient): 80
[2]; ataxia telangiectasia Patient 2, after one month, before 299.2 s
  9-Hole Pegboard Test Non-Dominant (9HPTND): 300 s
[2]; ataxia telangiectasia Patient 2, after one month, before 300 s
  9-Hole Pegboard Test Dominant (9HPTD) (right): 300 s
[2]; [15]
  Caregivers' and patient's report: general improvement of well-being
  Mean 8-meters Walking Test (8 MW): not able to perform
  Video-oculography (summary): significant improvement of fixation stability and decrease of intensity of gaze-holding nystagmus at all positions
[2]; [16]
  Slow phase velocity of the gaze-holding nystagmus, Horizontal: −0.1 °/s
  Slow phase velocity of the gaze-holding nystagmus, Vertical: 0.4 °/s
[2]; [17]
  Slow phase velocity of the gaze-holding nystagmus, Horizontal: −0.6 °/s
  Slow phase velocity of the gaze-holding nystagmus, Vertical: 1.2 °/s
[2]; [18]
  Slow phase velocity of the gaze-holding nystagmus, Horizontal: 1.7 °/s
  Slow phase velocity of the gaze-holding nystagmus, Vertical: 0.1 °/s
[2]; [19]
  Slow phase velocity of the gaze-holding nystagmus, Horizontal: −4.2 °/s
  Slow phase velocity of the gaze-holding nystagmus, Vertical: 1.7 °/s
[2]; ataxia telangiectasia Patient 3, after slightly over 7 months, before 14
  PATA Word Test: 10
[2]; ataxia telangiectasia Patient 3, after slightly over 7 months, before 80
  Visual analog scale (as evaluated by the patient): 80
[2]; ataxia telangiectasia Patient 3, after slightly over 7 months, before 150 s
  9-Hole Pegboard Test Dominant (9HPTD) (right): 124.5 s
[2]; ataxia telangiectasia Patient 3, after slightly over 7 months, before 161.6 s
  9-Hole Pegboard Test Non-Dominant (9HPTND): 147.5 s
[2]; [20]
  Mean 8-meters Walking Test (8 MW): not able to perform
  Patient's and parent's report: improvement in handwriting
  Video-oculography (summary): general improvement of fixation stability and decrease of intensity of spontaneous and gaze-holding nystagmus at all positions
[2]; [21]
  Slow phase velocity of the gaze-holding nystagmus, Horizontal: −0.2 °/s
  Slow phase velocity of the gaze-holding nystagmus, Vertical: 4.8 °/s
[2]; [22]
  Slow phase velocity of the gaze-holding nystagmus, Horizontal: −0.7 °/s
  Slow phase velocity of the gaze-holding nystagmus, Vertical: −2.3 °/s
[2]; [23]
  Slow phase velocity of the gaze-holding nystagmus, Horizontal: −0.8 °/s
  Slow phase velocity of the gaze-holding nystagmus, Vertical: 1.9 °/s
[2]; [24]
  Slow phase velocity of the gaze-holding nystagmus, Horizontal: −1 °/s
  Slow phase velocity of the gaze-holding nystagmus, Vertical: 0.3 °/s
[2]; ataxia telangiectasia Patient 4, after slightly over 1 month, before 14
  PATA Word Test: 15.5
[2]; ataxia telangiectasia Patient 4, after slightly over 1 month, before 52.3 s
  9-Hole Pegboard Test Non-Dominant (9HPTND): 101.7 s
[2]; ataxia telangiectasia Patient 4, after slightly over 1 month, before 70
  Visual analog scale (as evaluated by the patient): 70
[2]; ataxia telangiectasia Patient 4, after slightly over 1 month, before 124.5 s
  9-Hole Pegboard Test Dominant (9HPTD) (right): 93.5 s
[2]; ataxia telangiectasia Patient 5, 5 g/day, after about 1 month
  Mother's report: significant improvement of stability of the gait
[2]; [25]
  Mean 8-meters Walking Test (8 MW): not able to walk without support
  Weight gained: 1.5 kg
[2]; [26]
  Slow-phase velocity (SPV) of fixation and gaze-holding nystagmus, Horizontal: 0.79 °/s
  Slow-phase velocity (SPV) of fixation and gaze-holding nystagmus, Vertical: 3.54 °/s
[2]; [27]
  Slow-phase velocity (SPV) of fixation and gaze-holding nystagmus, Horizontal: 0.62 °/s
  Slow-phase velocity (SPV) of fixation and gaze-holding nystagmus, Vertical: 1.08 °/s
[2]; [28]
  Slow-phase velocity (SPV) of fixation and gaze-holding nystagmus, Horizontal: 1.22 °/s
  Slow-phase velocity (SPV) of fixation and gaze-holding nystagmus, Vertical: 2.53 °/s
[2]; [29]
  Slow-phase velocity (SPV) of fixation and gaze-holding nystagmus, Horizontal: 1.17 °/s
  Slow-phase velocity (SPV) of fixation and gaze-holding nystagmus, Vertical: 2.36 °/s
[2]; [30]
  Slow-phase velocity (SPV) of fixation and gaze-holding nystagmus, Horizontal: 0.33 °/s
  Slow-phase velocity (SPV) of fixation and gaze-holding nystagmus, Vertical: 1.71 °/s
[2]; ataxia telangiectasia Patient 5, after about 1 month, before 6
  PATA Word Test: 7.5
[2]; ataxia telangiectasia Patient 5, after about 1 month, before 90
  Visual analog scale (as evaluated by the patient): 80
[2]; ataxia telangiectasia Patient 5, after about 1 month, before 102.7 s
  9-Hole Pegboard Test Dominant (9HPTD) (right): 103.6 s
[2]; ataxia telangiectasia Patient 5, after about 1 month, before 116.8 s
  9-Hole Pegboard Test Non-Dominant (9HPTND): 88.8 s
[2]; [31]
  9-Hole Pegboard Test Dominant (9HPTD) (right): 92.4 s
  9-Hole Pegboard Test Non-Dominant (9HPTND): 98.3 s
  Further weight gained: 3 kg
  Mother's report: significantly more stable gait
  PATA Word Test: 11
  Visual analog scale (as evaluated by the patient): 100
[2]; ataxia telangiectasia Patient 5, after almost 7 months, holding of the hand
  Mean 8-meters Walking Test (8 MW): 15.3 s
[2]; [32]
  9-Hole Pegboard Test Dominant (9HPTD) (right): 95.6 s
  9-Hole Pegboard Test Non-Dominant (9HPTND): 127.6 s
  Clinical observation: improved social interaction, activity, and agility
  PATA Word Test: 14.5
  Visual analog scale (as evaluated by the patient): 95
[2]; ataxia telangiectasia Patient 5, after slightly over a year, able to walk by themself, parent held hand
  Mean 8-meters Walking Test (8 MW): 13.9 s
[2]; ataxia telangiectasia Patient 5, after slightly over a year, suspected infantile migraine
  Adverse observation: repeatedly occuring frontal localized pain with vomiting in the morning
[2]; [33]
  Clinical observation: increased fine motor skills with reduced hand tremor, improved postural stability and gait, increased enunciation, and increased self-confidence
  8MWT: 8.45 s
  PATA: 15.5
  9HPTND: 70.39 s
  9HPTD: 81.95 s
[2]; [34]
  Clinical observation: stable general conditions, stable gait and stance, and improved handwriting
  8MWT: 7.53 s
  PATA: 13
  9HPTND: 80.32 s
  9HPTD: 136.27 s
[2]; ataxia telangiectasia Patient 6, after six months, baseline 11/40
  SARA: 11/40
